Data reported in patent publication US10570129B2 (Zoetis Services LLC, priority 2015, dated 2020).

Columns and labels:
[1] = tested on: Trichostrongylus colubriformis; assay: Jird efficacy model; type: in vivo; details: Trichostrongylus colubriformis, sc, 96 h, read-out: Jird % (percentage efficacy)
[2] = tested on: Haemonchus contortus L3; assay: microbe, parasite or virus in culture; type: cell-based; details: Haemonchus contortus, 96 h, read-out: HcL3 Minimal Effective Concentration (MEC)
[3] = tested on: D. immitis microfilariae; assay: Dirofilaria immitis, microfilariae (DiMF) in vitro motility assay; type: cell-based; details: Dirofilaria immitis, 72 h, read-out: DiMF minimally effective dose (MEC)

Compound | inhibition in vivo at 10 mg/kg [1] [%] | minimal effective concentration [2] [µM] | minimal effective concentration [3] [µM]
N#Cc1ccc2c(c1)c1c(n2C(=O)NCc2ccnc(Cl)c2)CCN(C/C=C/c2ccc(F)cc2F)C1 [Example 88, (E)-N-((2-chloropyridin-4-yl)methyl)-8-cyano-2-(3-(2,4-difluorophenyl)allyl)-1,2,3,4-tetrahydro-5H-pyrido[4,3-b]indole-5-carboxamide] | 99 | 0.1 | 3.3
O=C(NCc1ccnc(Cl)c1)n1c2c(c3cc(Cl)ccc31)CN(C/C=C/c1ccc(F)cc1F)CC2 [Example 238, (E)-8-chloro-N-((2-chloropyridin-4-yl)methyl)-2-(3-(2,4-difluorophenyl)allyl)-1,2,3,4-tetrahydro-5H-pyrido[4,3-b]indole-5-carboxamide] | 100 | 1 | 5.7
O=C(NCc1ccnc(Cl)c1)n1c2c(c3cc(N4CCOCC4)ccc31)CN(C/C=C/c1ccc(Cl)c(F)c1)CC2 [Example 504, (E)-2-(3-(4-chloro-3-fluorophenyl)allyl)-N-((2-chloropyridin-4-yl)methyl)-8-morpholino-1,2,3,4-tetrahydro-5H-pyrido[4,3-b]indole-5-carboxamide] | 100 | 5.7 | 10
N#Cc1ccc2c3c(n(C(=O)NCc4ccnc(Cl)c4)c2c1)CCN(C/C=C/c1cc(F)c(F)c(F)c1)C3 [Example 29, (E)-N-((2-chloropyridin-4-yl)methyl)-7-cyano-2-(3-(3,4,5-trifluorophenyl)allyl)-1,2,3,4-tetrahydro-5H-pyrido[4,3-b]indole-5-carboxamide] | 99 | 0.7 | 1.8
O=C(NCc1ccnc(Cl)c1)n1c2c(c3c(Br)cccc31)CN(C/C=C/c1ccc(Cl)cc1)CC2 [Example 444, (E)-9-bromo-2-(3-(4-chlorophenyl)allyl)-N-((2-chloropyridin-4-yl)methyl)-1,2,3,4-tetrahydro-5H-pyrido[4,3-b]indole-5-carboxamide] | 100 | 0.7 | 2.4
O=C(NCc1cnc(Cl)s1)n1c2c(c3cc4c(cc31)COC4)CN(C/C=C/c1ccc(Cl)cc1)CC2 [Example 489, (E)-8-(3-(4-chlorophenyl)allyl)-N-((2-chlorothiazol-5-yl)methyl)-1,3,6,7,8,9-hexahydro-5H-furo[3,4-f]pyrido[4,3-b]indole-5-carboxamide] | 100 | 3.3 | 3.3
O=C(NCc1ccnc(F)c1)n1c2c(c3c(Cl)cccc31)CN(C/C=C/c1ccc(Cl)cc1)CC2 [Example 230, (E)-9-chloro-2-(3-(4-chlorophenyl)allyl)-N-((2-fluoropyridin-4-yl)methyl)-1,2,3,4-tetrahydro-5H-pyrido[4,3-b]indole-5-carboxamide] | 100 | 1.8 | 10
N#Cc1ccc2c(c1)c1c(n2C(=O)NCc2ccnc(F)c2)CCN(C/C=C/c2ccc(F)cc2F)C1 [Example 115, (E)-8-cyano-2-(3-(2,4-difluorophenyl)allyl)-N-((2-fluoropyridin-4-yl)methyl)-1,2,3,4-tetrahydro-5H-pyrido[4,3-b]indole-5-carboxamide] | 100 | 0.1 | 3.3
O=C(NCc1ccnc(F)c1)n1c2c(c3ccc(C(F)(F)F)cc31)CN(C/C=C/c1ccc(Cl)cc1)CC2 [Example 165, (E)-2-(3-(4-chlorophenyl)allyl)-N-((2-fluoropyridin-4-yl)methyl)-7-(trifluoromethyl)-1,2,3,4-tetrahydro-5H-pyrido[4,3-b]indole-5-carboxamide] | 100 | 3.3 | 3.3
O=C(NCc1ccnc(Cl)c1)n1c2c(c3cc(OC(F)(F)F)ccc31)CN(C/C=C/c1ccc(Cl)cc1)CC2 [Example 391, (E)-2-(3-(4-chlorophenyl)allyl)-N-((2-chloropyridin-4-yl)methyl)-8-(trifluoromethoxy)-1,2,3,4-tetrahydro-5H-pyrido[4,3-b]indole-5-carboxamide] | 100 | 1 | 32.1
O=C(NCc1ccnc(F)c1)n1c2c(c3ccc(C(F)(F)F)cc31)CN(C/C=C/c1ccc(Cl)c(F)c1)CC2 [Example 163, (E)-2-(3-(4-chloro-3-fluorophenyl)allyl)-N-((2-fluoropyridin-4-yl)methyl)-7-(trifluoromethyl)-1,2,3,4-tetrahydro-5H-pyrido[4,3-b]indole-5-carboxamide] | 100 | 1.8 | 5.7
O=C(NCc1ccnc(F)c1)n1c2c(c3ccc(Cl)cc31)CN(C/C=C/c1ccc(Cl)cc1)CC2 [Example 229, (E)-7-chloro-2-(3-(4-chlorophenyl)allyl)-N-((2-fluoropyridin-4-yl)methyl)-1,2,3,4-tetrahydro-5H-pyrido[4,3-b]indole-5-carboxamide] | 100 | 3.3 | 10
N#Cc1ccc2c3c(n(C(=O)NCc4ccnc(Cl)c4)c2c1)CCN(C/C=C/c1c(F)cc(F)cc1F)C3 [Example 9, (E)-N-((2-chloropyridin-4-yl)methyl)-7-cyano-2-(3-(2,4,6-trifluorophenyl)allyl)-1,2,3,4-tetrahydro-5H-pyrido[4,3-b]indole-5-carboxamide] | 99 | 7.6 | 5.7
O=C(NCc1ccnc(Cl)c1)n1c2c(c3ccc(C(F)(F)F)cc31)CN(C/C=C/c1ccc(Cl)c(F)c1)CC2 [Example 152, (E)-2-(3-(4-chloro-3-fluorophenyl)allyl)-N-((2-chloropyridin-4-yl)methyl)-7-(trifluoromethyl)-1,2,3,4-tetrahydro-5H-pyrido[4,3-b]indole-5-carboxamide] | 99 | 1 | 3.3
N#Cc1ccc2c(c1)c1c(n2C(=O)NCc2ccnc(F)c2)CCN(C/C=C/c2ccc(Br)cc2F)C1 [Example 102, (E)-2-(3-(4-bromo-2-fluorophenyl)allyl)-8-cyano-N-((2-fluoropyridin-4-yl)methyl)-1,2,3,4-tetrahydro-5H-pyrido[4,3-b]indole-5-carboxamide] | 97 | 0.3 | 3.3
O=C(NCc1ccnc(F)c1)n1c2c(c3ccc(OC(F)(F)F)cc31)CN(C/C=C/c1ccc(Cl)cc1)CC2 [Example 379, (E)-2-(3-(4-chlorophenyl)allyl)-N-((2-fluoropyridin-4-yl)methyl)-7-(trifluoromethoxy)-1,2,3,4-tetrahydro-5H-pyrido[4,3-b]indole-5-carboxamide] | 100 | 1 | 5.7
